Earlier results, collected in patent publication US10945992B1, “Dosage forms of rofecoxib and related methods” (Tremeau Pharmaceuticals, Inc., priority 2019, dated 2021).

Legend:
[1] = cited from earlier work; for incidence of gastrointestinal (GI) ulcers visualized at endoscopy compared to certain non-selective NSAIDs: FDA 2005; for risk of serious adverse cardiovascular events compared to placebo: long-term controlled clinical trial / FDA 2005
patients with HA = conditions: six weeks of Part 1; P<0.001; cited from earlier work

Cc1onc(-c2ccccc2)c1-c1ccc(S(N)(=O)=O)cc1 [valdecoxib]
incidence of gastrointestinal (GI) ulcers visualized at endoscopy compared to certain non-selective NSAIDs [1]: reduction
risk of serious adverse cardiovascular events compared to placebo [1]: increased risk

Cc1ccc(-c2cc(C(F)(F)F)nn2-c2ccc(S(N)(=O)=O)cc2)cc1 [celecoxib]
incidence of gastrointestinal (GI) ulcers visualized at endoscopy compared to certain non-selective NSAIDs [1]: reduction
risk of serious adverse cardiovascular events compared to placebo [1]: increased risk

Cc1ccc(-c2ncc(Cl)cc2-c2ccc(S(C)(=O)=O)cc2)cn1 [etoricoxib]
improvement on all endpoints versus placebo (patients with HA): clinically and statistically significant improvement
